The results in this text go back to US12565475B2, “Small molecule compound inhibiting signal transmission path of TLR7 and TLR9 and use thereof” (AJOU UNIVERSITY INDUSTRY-ACADEMIC COOPERATION FOUNDATION, priority 2019, dated 2026).

One experiment addresses T1, TLR4 (Mus musculus, UniProt Q9QUK6).
T1 construct: endogenous in cells; host or cells: RAW 264.7
T1 sequence (Q9QUK6 26-835): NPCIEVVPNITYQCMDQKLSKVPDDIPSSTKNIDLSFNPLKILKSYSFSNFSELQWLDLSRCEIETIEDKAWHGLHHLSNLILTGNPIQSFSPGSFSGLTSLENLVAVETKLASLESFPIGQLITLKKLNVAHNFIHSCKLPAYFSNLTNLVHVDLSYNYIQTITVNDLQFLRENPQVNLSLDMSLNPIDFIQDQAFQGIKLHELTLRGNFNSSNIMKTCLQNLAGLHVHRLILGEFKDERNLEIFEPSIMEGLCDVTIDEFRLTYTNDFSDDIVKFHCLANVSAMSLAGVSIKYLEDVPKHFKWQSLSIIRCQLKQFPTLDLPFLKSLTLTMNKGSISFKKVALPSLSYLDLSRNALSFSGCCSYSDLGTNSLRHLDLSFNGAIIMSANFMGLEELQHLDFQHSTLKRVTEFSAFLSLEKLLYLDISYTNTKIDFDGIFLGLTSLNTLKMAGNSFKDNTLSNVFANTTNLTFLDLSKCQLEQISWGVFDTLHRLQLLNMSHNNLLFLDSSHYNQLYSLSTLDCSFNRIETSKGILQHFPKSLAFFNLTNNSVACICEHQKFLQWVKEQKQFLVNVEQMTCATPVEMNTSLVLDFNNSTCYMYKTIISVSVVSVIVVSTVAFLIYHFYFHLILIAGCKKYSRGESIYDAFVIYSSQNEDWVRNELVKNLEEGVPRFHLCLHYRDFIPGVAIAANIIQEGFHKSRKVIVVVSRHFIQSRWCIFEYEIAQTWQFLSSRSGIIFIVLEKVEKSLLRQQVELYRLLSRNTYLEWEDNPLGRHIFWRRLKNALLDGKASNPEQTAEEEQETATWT
T1 sequence (Q9JHF9 19-160 partner): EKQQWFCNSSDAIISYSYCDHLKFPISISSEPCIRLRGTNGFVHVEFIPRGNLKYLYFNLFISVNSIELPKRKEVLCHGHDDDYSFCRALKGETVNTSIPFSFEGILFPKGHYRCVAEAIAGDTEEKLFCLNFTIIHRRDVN
Kind of experiment: TLR4-mediated TNF-α secretion (LPS), ELISA. The class given is cell-based, murine. Conditions: RAW 264.7, 10 or 20 μM. The protocol:
(§1) Agonists specific to TLR1/TLR2 (Pam3CSK4), TLR2/TLR6 (FSL-1), TLR3 (Poly I:C), TLR7 (imiquimod), and TLR8 (TL8-506) were purchased from InvivoGen Ltd. (Hong-Kong, China), and a TLR4-specific agonist (LPS from E. coli O111:B4) was purchased from Sigma-Aldrich, Inc. For TLR9-specific stimulation, class C CpG-ODN (ODN2395, 5′-TCGTCGTTTTCGGCGCGCGCCG-3′) having full phosphorothioate backbone modification was synthesized (Bioneer, Inc., Daejeon, Korea). All TLR agonists were dissolved in deionized water and applied to a culture media for TLR activation. The cells were treated with test compounds or a control medium for 1 hour, and then stimulated with a TLR agonist for 4 hours, or 24 hours in the case of poly(I:C), and the cytokine secretion was monitored.
(§2) RAW 264.7 or differentiated THP-1 cell lines were seeded onto a 96-well culture plate at a density of 2×10^4 cells/well. The cells were treated with test compounds for 1 hour followed by the stimulation with TLR agonists for 4 hours. The supernatant was transferred to pre-coated assay plates, and the secretion levels of mouse and human TNF-α were measured by respective ELISA kits (Invitrogen, Carlsbad, CA, USA). […] Absorbance was measured by a microplate reader spectrophotometer (Molecular Devices, Inc., San Jose, CA, USA), and data was interpolated from a standard curve using SoftMax Pro 5.3 software (Molecular Devices, Inc.). […]

Another experiment addresses T2, TLR3 (Mus musculus, UniProt Q99MB1).
T2 construct: endogenous in cells; host or cells: RAW 264.7
T2 sequence (Q99MB1 26-905): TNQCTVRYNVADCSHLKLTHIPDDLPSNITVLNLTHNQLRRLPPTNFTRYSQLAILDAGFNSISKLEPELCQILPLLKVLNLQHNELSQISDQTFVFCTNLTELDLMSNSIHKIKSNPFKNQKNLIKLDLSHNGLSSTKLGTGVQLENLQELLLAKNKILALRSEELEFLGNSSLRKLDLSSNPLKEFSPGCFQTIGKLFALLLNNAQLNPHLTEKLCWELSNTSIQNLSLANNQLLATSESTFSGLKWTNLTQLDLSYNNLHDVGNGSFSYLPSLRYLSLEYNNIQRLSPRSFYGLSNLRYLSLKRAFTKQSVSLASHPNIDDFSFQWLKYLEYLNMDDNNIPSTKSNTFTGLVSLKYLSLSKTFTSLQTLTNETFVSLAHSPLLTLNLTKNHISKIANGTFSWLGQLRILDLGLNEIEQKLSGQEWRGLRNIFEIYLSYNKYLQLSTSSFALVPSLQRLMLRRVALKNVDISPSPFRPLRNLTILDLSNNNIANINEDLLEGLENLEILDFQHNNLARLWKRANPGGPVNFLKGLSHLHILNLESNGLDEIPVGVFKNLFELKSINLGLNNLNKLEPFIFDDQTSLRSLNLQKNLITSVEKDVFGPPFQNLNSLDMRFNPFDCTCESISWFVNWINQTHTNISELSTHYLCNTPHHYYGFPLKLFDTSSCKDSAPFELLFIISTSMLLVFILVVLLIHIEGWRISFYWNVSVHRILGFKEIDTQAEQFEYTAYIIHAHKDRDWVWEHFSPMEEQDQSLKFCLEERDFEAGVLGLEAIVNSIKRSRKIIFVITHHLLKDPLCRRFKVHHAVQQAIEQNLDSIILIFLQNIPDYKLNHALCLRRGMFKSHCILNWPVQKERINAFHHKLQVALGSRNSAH
Description: TLR3-mediated TNF-α secretion (poly I:C), ELISA. The class given is cell-based, murine. To be noted: RAW 264.7, 10 or 20 μM, poly I:C 24 hours. The protocol:
as §1, §2

Take `COc1ccc(CNc2ncc(-c3ccc4c(c3)OCO4)n2C)c(OC)c1` [TIC10-7, 5-(2H-1,3-benzodioxol-5-yl)-N-[(2,4-dimethoxyphenyl)methyl]-1-methyl-1H-imidazol-2-amine]: the “effect on TLR4-mediated cytokine (TNF-α) production” value at TLR4 is reported as “no effect”. Further, the “TLR3-mediated TNF-α secretion” value at TLR3 is on record as “moderately reduced”.
